Article PMC8129133, “Polymer-free corticosteroid dimer implants for controlled and sustained drug delivery” (Nature Communications, 2021)
Where “and” joins values, the source holds several entries; their conditions need not be identical. Equal values may be shown once.

Key:
[1] = Dissolution of intravitreal implants in the rabbit eye (IR imaging of implant diameter, model fit); format: in vivo; conditions: for local surface dissolution rate constant / Implant Diameter (%): intravitreal; for local surface dissolution rate constant / Diameter of the drug delivery device / Diameter of drug delivery device: rabbit eye; for Implant Diameter (%): Fig 8b, 30 G × 6 mm implant, rabbit; for Diameter of the drug delivery device: script for Supp Fig 11a (30 G implant); for Diameter of drug delivery device: script for Supp Fig 11b, 32G × 6mm
Description: Sample preparation. All implants were formed by melt extrusion of Dex-TEG-Dex, followed by cutting of implants to desired length. Samples were loaded into appropriate sized needles (27 G for 27 G implant, 30 G for 30 G, and 32 G implants), packaged, and sterilized by ethylene oxide gas.
IR imaging. Wide-angle infrared (IR) imaging was performed at baseline, and monthly thereafter for implant imaging and eye health assessment. The imaging was performed using a Heidelberg Spectralis® imaging platform and IR images were analyzed using image analysis software (Image J v.1.8.0) to measure the diameter change of the implants. Three diameter measurements per image and a minimum of two images per implant were used to determine the diameter of the implant at each time point.
Mathematical modeling of drug release. Modeling of the Dex-TEG-Dex implants in the rabbit eye was performed using a compartmental model of drug release using MathWorks MATLAB R2020b. In this model, the drug delivery device is formed of solid drug dimer which undergoes surface erosion to release dimer into an intermediate domain. In the intermediate domain, dimer undergoes degradation to free drug and mono (linker-drug), which subsequently degrades to free linker and free drug. These components undergo transport to the target domain and are then cleared.
This model employs several simplifying assumptions. (1) The mechanism of surface dissolution is local (the same for each part of the surface independent of its location on the surface of the implant), in a manner dependent on the properties of the implant’s physiological location (e.g., dimer saturation). (2) Rate constants of processes are time independent, and the dissolution rates only depend on the corresponding changes in the shape of the delivery devices and properties of their environment. (3) Dimer degradation in the domain of interest occurs on a comparatively fast time scale such that the saturation concentration of dimer is not reached.
A differential equation for the radius, R(t), of a cylindrical drug delivery device described by the compartmental model and derived using Noyes–Whitney equation[74],[75] can be written as (1):1 dR/dt=−DμY/ρh⋅y^*=−b, where D is a diffusion coefficient, µY is the molecular mass of the dimer, ρ is the density of the drug delivery device material, h is the thickness of the concentration gradient layer near the surface, y* is the saturation concentration of the dimer and b is the local surface dissolution rate.
The initial radius, R, of the cylindrical device is known: R0=R0 . Integrating Eq. (1) with this initial condition, gives Eq. (2):2 Rt=R0−b⋅t
Equation (2) was fit to available data (time-dependent measurements of implant diameter) to estimate the local surface dissolution rate constant b for the 30 G × 6 mm and 32 G × 6 mm Dex-TEG-Dex intravitreal implants.

[2] = test system: lipopolysaccharide (LPS)-induced model of uveitis in a rat eye; experiment: Rat uveitis model; format: in vivo, Brown Norway rats; conditions: for Retinal Thickness (µm): single eyes, Fig 7e
Description: Sample preparation. Dex-TEG-Dex was weighed on a stainless steel coupon and transferred to a heat press (Carver Laboratory Press). Once melted, a polytetrafluoroethylene (PTFE) template was placed on the melt and pressure was applied for 2 min. Samples were cooled to room temperature prior to removal from the PTFE mold, yielding implants with 23 G diameter × 1 mm length. Samples were loaded into appropriate-sized needles (23 G), packaged, and sterilized by ethylene oxide gas.
LPS stimulation and implantation. […] Animals were first sedated in an isoflurane gas chamber before being anaesthetized through an intraperitoneal injection of ketamine (100 mg/kg) and xylazine (10 mg/kg) solution. One day prior to LPS stimulation, eyes were prepared with topical anesthetic eye drops (Alcaine, 0.5%, Alcon) and pupils were dilated with application of one drop of 1% tropicamide (Alcon) on each cornea prior to anesthesia. Implants were then injected with a 23 G needle into the vitreous humor of rat eyes. Negative control animals received a sham injection, while the positive control group received a sham injection as well as Dex eye drops 4× daily (Maxidex 0.1%, Alcon). One day after test article administration, each rat received an intravitreal injection of 100 ng of LPS (LPS Escherichia coli 0111:B4, Sigma Aldrich) to induce inflammation. The inflammatory state of the eyes was monitored by slit-lamp microscopy (Phoenix Anterior Segment Slit Lamp), fundus microscopy (Phoenix Micron IV), and optical coherence tomography (Phoenix image-guided OCT) for 72 h post-LPS injection. Slit-lamp was used to image the anterior structures of the rat eye and to assess changes in vasculature, aqueous humor haze, pupil responsiveness, and presence of cellular infiltrates. Anterior segment OCT (ASOCT) was used to assess signs of inflammation in the anterior chamber through anterior chamber flare, pupillary fibrin occlusions, and presence of inflammatory cells. The ASOCT was used only for qualitative evaluation of the inflammatory state. Posterior segment OCT (PSOCT) was used to capture six (6) images around the optic disc (OD) of each eye and the images were used for retinal thickness, inflammatory cell count, and vitreal haze evaluation. Retinal thickness was measured using ImageJ (v.1.8.0) from four (4) OCT images close to the optic disk. Inflammatory cells were manually quantified from the same OCT images used for retinal thickness measurements.

[3] = 3-point bend test of extruded rods; format: physicochemical; conditions: Fig 2c
Excerpt: Extruded rods of ~300 µm diameter and 8 mm length (6 mm span on testing apparatus) were subjected to a 3-point bend test using an Instron uniaxial servo-hydraulic testing machine (Instron Model 8501) with a 2.5 N load cell and cross-head speed of 0.8 mm/min.

[4] = In vitro half-life / degradation of solubilized Dex-TEG-Dex in FBS; format: in vitro ADME
Description: Dex-TEG-Dex was dissolved in acetone at 10 mg/ml and added to 100% FBS to obtain a final concentration of 10 µg/ml and incubated at 37 °C with constant agitation at 115 rpm (VWR). At experimental timepoints of t = 0, 0.5, 1, 2, 3, 4, 5, 6, and 24 h, sample was removed and protein was precipitated with acetonitrile. Samples were vortexed and centrifuged to separate extracted drug from the precipitated protein. The supernatant was then analyzed by HPLC as described above.

Structure (SMILES): C[C@@H]1C[C@H]2[C@@H]3CCC4=CC(=O)C=C[C@]4(C)[C@@]3(F)[C@@H](O)C[C@]2(C)[C@@]1(O)C(=O)COC(=O)OCCOCCOCCOC(=O)OCC(=O)[C@@]1(O)[C@H](C)C[C@H]2[C@@H]3CCC4=CC(=O)C=C[C@]4(C)[C@@]3(F)[C@@H](O)C[C@@]21C [Dex-TEG-Dex]
- local surface dissolution rate constant ([1]; 30 G implant): 0.1510 ± 0.0084 µm/day
- local surface dissolution rate constant ([1]; 32 G implant): 0.1522 ± 0.0140 µm/day
- Implant Diameter (%) ([1]; 0 days): 107.57% and 103.15% and 92.13% and 99.18% and 92.81% and 97.05% and 100.23% and 107.88%
- Implant Diameter (%) ([1]; 35 days): 87.55% and 86.70% and 88.00% and 92.68% and 90.49% and 81.42% and 103.34% and 91.71%
- Implant Diameter (%) ([1]; 76 days): 82.56% and 74.07% and 79.78% and 98.06% and 80.37% and 72.75% and 93.94%
- Implant Diameter (%) ([1]; 128 days): 76.90% and 66.50% and 66.32% and 64.24% and 79.47% and 77.51% and 67.41% and 82.08%
- Implant Diameter (%) ([1]; 210 days): 55.93% and 41.19% and 50.86% and 49.89% and 69.49% and 44.35% and 52.23% and 60.96%
- Diameter of the drug delivery device ([1]; day 0): 115.44 µm and 122.56 µm and 115.98 µm and 121.28 µm and 125.25 µm and 134.81 µm and 135.77 µm and 128.91 µm
- Diameter of the drug delivery device ([1]; day 35): 109.97 µm and 115.81 µm and 110.60 µm and 101.74 µm and 129.14 µm and 114.61 µm and 109.41 µm and 108.35 µm
- Diameter of the drug delivery device ([1]; day 76): 92.56 µm and 99.70 µm and 122.54 µm and 101.44 µm and 90.91 µm and 117.39 µm and 94.21 µm and 112.13 µm
- Diameter of the drug delivery device ([1]; day 128): 81.93 µm and 80.28 µm and 99.31 µm and 96.86 µm and 84.21 µm and 102.57 µm and 96.10 µm and 83.10 µm
- Diameter of the drug delivery device ([1]; day 185): 71.40 µm and 91.90 µm and 62.52 µm and 53.64 µm and 76.76 µm and 78.82 µm and 73.54 µm
- Diameter of the drug delivery device ([1]; day 210): 63.55 µm and 62.35 µm and 86.62 µm and 55.42 µm and 65.27 µm and 76.18 µm and 69.90 µm and 51.48 µm
- Diameter of drug delivery device ([1]; day 0): 71.94 µm and 80.30 µm and 83.05 µm and 99.99 µm and 86.79 µm and 101.43 µm and 116.40 µm and 84.89 µm
- Diameter of drug delivery device ([1]; day 35): 90.18 µm and 66.10 µm and 74.39 µm and 80.46 µm and 84.98 µm and 58.84 µm and 82.44 µm and 84.41 µm
- Diameter of drug delivery device ([1]; day 76): 77.98 µm and 58.21 µm and 73.62 µm and 66.12 µm and 67.29 µm and 54.07 µm and 65.40 µm and 64.89 µm
- Diameter of drug delivery device ([1]; day 128): 43.88 µm and 50.55 µm and 44.52 µm and 60.85 µm and 49.60 µm and 50.03 µm and 42.29 µm and 71.40 µm
- Retinal Thickness (µm) ([2]; 0h): 298 µm and 279 µm and 272 µm and 275 µm and 314 µm and 300 µm and 293 µm and 294 µm
- Retinal Thickness (µm) ([2]; 24h): 300 µm and 269 µm and 279 µm and 286 µm and 296 µm and 289 µm and 292 µm
- Retinal Thickness (µm) ([2]; 48h): 279 µm and 296 µm and 265 µm and 264 µm and 275 µm and 261 µm and 294 µm and 266 µm
- Retinal Thickness (µm) ([2]; 72h): 245 µm and 261 µm and 250 µm and 249 µm and 236 µm and 241 µm and 247 µm and 259 µm
- Retinal Thickness (µm) ([2]; -24h): 244 µm and 248 µm and 257 µm and 251 µm and 238 µm and 240 µm
- effect on LPS-induced inflammatory response ([2]; intravitreal 23 G implant, 24 h before LPS, cellular infiltrate and retinal thickness by OCT, 72 h): acutely suppress the LPS-induced inflammatory response
- Flexural Modulus [3]: 2.45 GPa and 2.68 GPa and 3.21 GPa and 3.29 GPa and 3.01 GPa
- t1/2 of solubilized dimer with protease inhibitor ([4]; FBS + Pefabloc 1 mg/ml): 17.5 ± 4.0 h
- t1/2 of solubilized dimer ([4]; FBS, 37 °C): 1.6 ± 0.3 h
- Dex-TEG-Dex ([4]; Fig 4f/4g, 100% FBS, 0 h): 8904.60 ng/mL and 12808.33 ng/mL and 10692.90 ng/mL
- Dex-TEG-Dex ([4]; Fig 4f/4g, 100% FBS, 0.5 h): 7215.95 ng/mL and 9829.58 ng/mL and 8828.65 ng/mL
- Dex-TEG-Dex ([4]; Fig 4f/4g, 100% FBS, 1 h): 5359.02 ng/mL and 7447.63 ng/mL and 6811.81 ng/mL
- Dex-TEG-Dex ([4]; Fig 4f/4g, 100% FBS, 2 h): 2692.08 ng/mL and 4406.52 ng/mL and 3872.43 ng/mL
- Dex-TEG-Dex ([4]; Fig 4f/4g, 100% FBS, 3 h): 1327.43 ng/mL and 2230.11 ng/mL and 1843.05 ng/mL
- Dex-TEG-Dex ([4]; Fig 4f/4g, 100% FBS, 4 h): 658.17 ng/mL and 1181.11 ng/mL and 1053.60 ng/mL
- Dex-TEG-Dex ([4]; Fig 4f, 100% FBS, 24 h): 0.00 ng/mL
- Dex-TEG-Dex ([4]; Fig 4g, 100% FBS + Pefabloc, 0 h): 9696.84 ng/mL and 12099.70 ng/mL and 11672.92 ng/mL
- Dex-TEG-Dex ([4]; Fig 4g, 100% FBS + Pefabloc, 0.5 h): 9639.71 ng/mL and 11685.46 ng/mL and 12342.53 ng/mL
- Dex-TEG-Dex ([4]; Fig 4g, 100% FBS + Pefabloc, 1 h): 9646.33 ng/mL and 10767.80 ng/mL and 11272.62 ng/mL
- Dex-TEG-Dex ([4]; Fig 4g, 100% FBS + Pefabloc, 2 h): 9053.36 ng/mL and 10983.11 ng/mL and 10167.52 ng/mL
- Dex-TEG-Dex ([4]; Fig 4g, 100% FBS + Pefabloc, 3 h): 9138.02 ng/mL and 9847.00 ng/mL and 8269.83 ng/mL
- Dex-TEG-Dex ([4]; Fig 4g, 100% FBS + Pefabloc, 4 h): 8469.46 ng/mL and 9930.96 ng/mL and 8280.63 ng/mL
- Dex-TEG-Dex ([4]; Fig 4g, 100% FBS + Pefabloc, 5 h): 8230.46 ng/mL and 9376.67 ng/mL and 8546.80 ng/mL
- Dex-TEG-Dex ([4]; Fig 4g, 100% FBS + Pefabloc, 6 h): 7196.79 ng/mL and 9318.49 ng/mL and 8262.17 ng/mL
